Results as given in PubChem BioAssay AID248 (DTP/NCI, 2004).
Inconclusive results and toxic doses are left out. No stated cut-off is given here; in the data, active means T/C of 150% or more; inactive means T/C below 125%.

Tested on: L1210 leukemia ip in BDF1 mice, survival T/C
Assay: NCI In Vivo Anticancer Drug Screen. Data for tumor model L1210 Leukemia (intraperitoneal) in B6D2F1 (BDF1) mice
Conditions: endpoint: mean survival time, higher = longer survival
Summary of the method: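 Ratio derived from survival: compound-dosed mice over vehicle-dosed mice, all bearing a transplantable tumor.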

Measured: T/C

Cc1cc(OC(=O)Nc2cccc(Cl)c2)ccc1[N+](=O)[O-]
inactive: dose: 100.0 mg/kg/injection, schedule: Q01DX009 (ip), vehicle: Klucel (hydroxypropylcellulose) (HPC) 101 % of control | dose: 100.0 mg/kg/injection, schedule: Q04DX003 (ip), vehicle: Klucel (hydroxypropylcellulose) (HPC) 90 % of control | dose: 200.0 mg/kg/injection, schedule: Q01DX009 (ip), vehicle: Klucel (hydroxypropylcellulose) (HPC) 101 % of control | dose: 200.0 mg/kg/injection, schedule: Q04DX003 (ip), vehicle: Klucel (hydroxypropylcellulose) (HPC) 95 % of control | dose: 400.0 mg/kg/injection, schedule: Q04DX003 (ip), vehicle: Klucel (hydroxypropylcellulose) (HPC) 90 % of control

CC1(C)CCCC2(C)C3=C(CC4(C(C)(C)O)OC4C3=O)C(=O)CC12 (centres undefined)
inactive: dose: 100.0 mg/kg/injection, schedule: Q01DX001 (ip), vehicle: saline 102 % of control | dose: 200.0 mg/kg/injection, schedule: Q01DX001 (ip), vehicle: saline 105 % of control | dose: 400.0 mg/kg/injection, schedule: Q01DX001 (ip), vehicle: saline 109 % of control

O=S(=O)(O)SCCCNc1ncnc2ccccc12
inactive: dose: 100.0 mg/kg/injection, schedule: Q01DX001 (ip), vehicle: carboxymethylcellulose (CMC) 107 % of control | dose: 200.0 mg/kg/injection, schedule: Q01DX001 (ip), vehicle: carboxymethylcellulose (CMC) 105 % of control | dose: 400.0 mg/kg/injection, schedule: Q01DX001 (ip), vehicle: carboxymethylcellulose (CMC) 102 % of control

COc1ccccc1-n1c(=O)c(N=Nc2ccc(Br)cc2)c(O)n(-c2ccccc2Cl)c1=S
inactive: dose: 37.5 mg/kg/injection, schedule: Q01DX001 (ip), vehicle: Klucel (hydroxypropylcellulose) (HPC) 107 % of control | dose: 75.0 mg/kg/injection, schedule: Q01DX001 (ip), vehicle: Klucel (hydroxypropylcellulose) (HPC) 116 % of control | dose: 150.0 mg/kg/injection, schedule: Q01DX001 (ip), vehicle: Klucel (hydroxypropylcellulose) (HPC) 98 % of control
